This is an account of results in patent publication US8153784B2, “Imaging of enzyme activity” (The General Hospital Corporation, priority 2004, dated 2012).

The target in data set [1] is T1, MPO (Homo sapiens, UniProt P05164).
T1 sequence (P05164 49-745): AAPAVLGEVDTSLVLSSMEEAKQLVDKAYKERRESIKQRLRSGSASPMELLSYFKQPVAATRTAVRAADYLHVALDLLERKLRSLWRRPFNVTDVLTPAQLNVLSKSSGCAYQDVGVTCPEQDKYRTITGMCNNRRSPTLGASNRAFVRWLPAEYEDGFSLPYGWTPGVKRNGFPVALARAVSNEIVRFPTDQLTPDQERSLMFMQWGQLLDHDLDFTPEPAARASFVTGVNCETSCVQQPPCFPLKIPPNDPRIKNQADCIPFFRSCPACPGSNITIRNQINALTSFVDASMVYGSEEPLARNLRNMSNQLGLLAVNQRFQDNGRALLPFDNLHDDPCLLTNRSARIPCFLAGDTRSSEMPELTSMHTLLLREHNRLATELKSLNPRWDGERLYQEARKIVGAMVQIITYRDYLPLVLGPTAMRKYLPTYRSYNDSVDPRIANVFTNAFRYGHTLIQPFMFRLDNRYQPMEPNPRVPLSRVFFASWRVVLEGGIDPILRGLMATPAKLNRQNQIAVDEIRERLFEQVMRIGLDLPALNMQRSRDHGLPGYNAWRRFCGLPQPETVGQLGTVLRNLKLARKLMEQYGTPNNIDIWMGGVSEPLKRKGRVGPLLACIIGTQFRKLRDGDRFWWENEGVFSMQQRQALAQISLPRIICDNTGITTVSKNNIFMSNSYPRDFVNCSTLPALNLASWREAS
Briefly: SPECT/CT imaging of MPO/Matrigel implants with 67Ga tracer. In kind it is in vivo, mouse. As for the experimental part:
SPECT imaging and biodistribution: A solution of 80-100 μCi of [^67Ga]—I in 200 μl of saline were injected intravenously into mice prepared as follows: ten-week old C57BL6 male mice (Jackson Laboratories) were injected with 400 μL of a mixture of Matrigel™ (Beckton-Dickinson) and MEM (Cambrex) into the thighs of each mouse one hour prior to imaging. The right thigh mixture also contained 15 U of MPO and 4 μg of glucose oxidase (Calbiochem), while the left thigh mixture contained no enzyme to serve as an internal control. Glucose oxidase was included to ensure local generation of hydrogen peroxide. […] Six hours after injection, the animals were sacrificed and biodistribution was determined in major organs. The % dose accumulated per gram of major organs was determined by using a gamma counter.
To test our hypothesis in vivo, we prepared an inflammation model in mice. The model consisted in the subcutaneous implantation (1 hour before radiotracer injection) of Matrigel/MPO/GO mixture in the right thigh of each mouse. The left thigh mixture contained no enzyme and served as internal control. Matrigel is a basement membrane matrix gel that can be used for immobilizing human MPO and peroxide-generating enzyme. After injecting [^67Ga]—I intravenously, SPECT/CT imaging was performed 4 hours later.

Data set [2] can be described thus: Biodistribution of 67Ga tracer. The class given is in vivo, mouse. Conditions: mice n=4; 6 hours after the injection. Here is the method: SPECT imaging and biodistribution: A solution of 80-100 μCi of [^67Ga]—I in 200 μl of saline were injected intravenously into mice prepared as follows: ten-week old C57BL6 male mice (Jackson Laboratories) were injected with 400 μL of a mixture of Matrigel™ (Beckton-Dickinson) and MEM (Cambrex) into the thighs of each mouse one hour prior to imaging. The right thigh mixture also contained 15 U of MPO and 4 μg of glucose oxidase (Calbiochem), while the left thigh mixture contained no enzyme to serve as an internal control. Glucose oxidase was included to ensure local generation of hydrogen peroxide. The animals were imaged 3 hours after injection on a high resolution X-SPECT/CT system (Gamma Medica). Six hours after injection, the animals were sacrificed and biodistribution was determined in major organs. The % dose accumulated per gram of major organs was determined by using a gamma counter.

The target of data set [3] is T2, endogenous mouse MPO (Mus musculus, UniProt P11247).
T2 construct: endogenous in cells; host or cells: inflammatory cells recruited by LPS in C57BL6 male mice (Matrigel site in the thigh, or flank muscle myositis)
T2 sequence (P11247 139-718): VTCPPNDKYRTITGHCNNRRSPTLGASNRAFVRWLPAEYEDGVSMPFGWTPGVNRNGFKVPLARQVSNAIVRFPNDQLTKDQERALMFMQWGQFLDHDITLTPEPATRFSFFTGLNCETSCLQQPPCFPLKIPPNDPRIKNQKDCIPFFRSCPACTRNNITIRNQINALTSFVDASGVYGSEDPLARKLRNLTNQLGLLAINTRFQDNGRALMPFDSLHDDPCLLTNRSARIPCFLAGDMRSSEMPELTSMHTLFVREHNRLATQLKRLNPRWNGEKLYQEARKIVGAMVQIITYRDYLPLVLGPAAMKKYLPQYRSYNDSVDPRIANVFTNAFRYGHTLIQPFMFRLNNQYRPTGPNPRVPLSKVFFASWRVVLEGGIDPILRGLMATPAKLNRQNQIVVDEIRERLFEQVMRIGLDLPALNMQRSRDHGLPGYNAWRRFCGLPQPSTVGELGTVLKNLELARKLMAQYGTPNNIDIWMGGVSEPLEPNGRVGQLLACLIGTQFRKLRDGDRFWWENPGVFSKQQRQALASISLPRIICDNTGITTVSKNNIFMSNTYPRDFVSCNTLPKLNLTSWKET
The data set can be described thus: LPS/Matrigel experiments, MR imaging. The class given is in vivo. The conditions noted are these: mice; LPS/Matrigel. As for the experimental part:
(§1) The MR imaging experiments were performed on a 1.5 T GE Excite scanner and a 4.7 T Bruker Pharmascan scanner. For all MR imaging experiments, precontrast T2-(TR=2000, TE=100, ETL=8, NEX=4, fast spin echo sequence) and T1-weighted images (TR=500, TE=11, NEX=4, spin echo sequence) with fat saturation were initially performed to locate the gels or area of inflammation. The substrates (0.3 mmol/kg) were subsequently injected via the tail vein of the mouse. The mouse was immediately imaged after the injection of the contrast agent using multiple T1-weighted sequences with fat saturation for at least 3 hours.
(§2) Ten-week old C57BL6 male mice were obtained from Jackson Laboratories. A total of 22 mice were used for the study. • 1. MPO/Matrigel imaging experiments: Matrigel™ (Beckton-Dickinson), a […] basement membrane matrix gel was used to immobilize human MPO and glucose oxidase (to supply H2O2 required for detecting MPO oxidative activity, Calbiochem). This was chosen to reflect deposits of human MPO in inflamed tissue in a mouse model. 400 μL of a mixture of Matrigel™ and MEM (Cambrex) was injected slowly into the thighs of each mouse one hour prior to imaging. The right thigh mixture also contained 15 U of MPO and 4 U of glucose oxidase (Calbiochem), while the left thigh mixture contained no enzyme and thus serves as an internal control. […]

The target in data set [4] is T3, human MPO embedded in Matrigel (Homo sapiens, UniProt P05164).
T3 construct: purchased BioDesign, Inc
T3 sequence (P05164 49-745): T1 sequence (P05164 49-745)
Briefly: MPO/Matrigel implant mouse model, T1-weighted MR imaging. In kind it is in vivo. Conditions: mice, right MPO/Matrigel vs left control, 1.5 T. As for the experimental part: To evaluate the monomeric substrates in vivo, we devised a mouse model that harbored 400 μL of Matrigel basement membrane matrix gel mixed 1:1 by volume with a solution containing 15 U of human MPO and glucose oxidase (as a source of hydrogen peroxide) that was injected into the right flank of the mouse. The left flank was injected with the enzyme-free Matrigel mixture. We subsequently performed T1-weighted MR imaging after the intravenous injection of Gd-DTPA-diSer substrate at the dose of […].
as §1
Ten-week old C57BL6 male mice were obtained from Jackson Laboratories. A total of 22 mice were used for the study. • 1. MPO/Matrigel imaging experiments: Matrigel™ (Beckton-Dickinson), a […] basement membrane matrix gel was used to immobilize human MPO and glucose oxidase (to supply H2O2 required for detecting MPO oxidative activity, Calbiochem). This was chosen to reflect deposits of human MPO in inflamed tissue in a mouse model. 400 μL of a mixture of Matrigel™ and MEM (Cambrex) was injected slowly into the thighs of each mouse one hour prior to imaging. The right thigh mixture also contained 15 U of MPO and 4 U of glucose oxidase (Calbiochem), while the left thigh mixture contained no enzyme and thus serves as an internal control. A total of 15 mice were used (3 mice each for 5-HT-DOTA(Gd), bis-5-HT-DTPA(Gd), bis-5-HT-DTPA-^111In, bis-tyramide-DTPA(Gd), and DTPA(Gd)). • 2. LPS/Matrigel experiments (n=3): This model was developed to induce endogeneous mouse MPO secretion and activation. 200 μL total volume Matrigel containing 10% heparin was injected slowly into the thighs of the mice 4 days prior to imaging. The right-sided mixture also contained E. coli lipopolysaccharide (LPS) at 10 μg/mL. One mouse was sacrificed for immunohistochemistry. • 3. Myositis experiments (n=4): LPS at 100 μg/mL in PBS was injected into each mouse intramuscularly in the right flank to produce myositis. The mice are imaged 24 hours after injection.
For normalized signal intensity measured on T1-weighted images, mean±standard deviation (SD) values were calculated in regions of interest (ROI). Contrast-to-noise (CNR) ratios were computed for each ROI according to the formula

Data set [5] has as its target T2, endogenous mouse MPO. Briefly: LPS induced myositis, MR imaging at 4.7 T. In kind it is in vivo. The conditions noted are these: mice with LPS induced myositis. As for the experimental part: as §1, §2
Data set [6] addresses T4, horseradish peroxidase (HRP) (Armoracia rusticana, UniProt P00433).
T4 sequence (P00433 31-338): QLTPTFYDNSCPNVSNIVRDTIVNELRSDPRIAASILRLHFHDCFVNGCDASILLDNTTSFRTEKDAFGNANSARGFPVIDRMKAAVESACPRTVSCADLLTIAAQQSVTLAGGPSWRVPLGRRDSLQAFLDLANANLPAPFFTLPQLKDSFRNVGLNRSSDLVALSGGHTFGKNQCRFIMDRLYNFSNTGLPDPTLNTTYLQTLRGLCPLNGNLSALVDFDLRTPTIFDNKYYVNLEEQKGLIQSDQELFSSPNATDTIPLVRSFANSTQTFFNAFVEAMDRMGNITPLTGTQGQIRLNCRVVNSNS
The data set can be described thus: Ga-3 as oxidoreductase reducing substrate, UV-visible spectra with HRP/H2O2. In kind it is biochemical. More on the design: purchased Sigma. The conditions noted are these: after approximately 2 hours. From the text:
(§3) Compound Ga-3 was further tested in vitro as an oxidoreductase reducing substrate. In a preliminary experiment, horseradish peroxidase (HRP), a model oxidoreductase, was used to test the possibility of enzyme-induced oligomerization. […] Well-defined aromatic band centered at 280 nm broadened over the reaction time and extended beyond 330 nm with some residual absorption in the region 350-500 nm. Extension towards the visible range is associated with the extension of the aromatic system as could be expected in the event of oligomerization. After 6 hours no change was observed and the reaction reaches levels close to 90% of conversion after approximately 2 hours. If MPO was used instead of HRP, the obtained results (see FIG. 20C) were similar.

Data set [7] concerns the target T1, MPO. The data set can be described thus: Ga-3 as oxidoreductase reducing substrate, UV-visible spectra with MPO. The class given is biochemical.
From the text: as §3

Turning to `CC(=O)N1CCCCCNC(=O)CCC(=O)N2CCCCCNC(=O)CCC(=O)N(CCCCCNC(=O)Cc3c[nH]c4ccc(O)cc34)[O][67Ga]([O]1)[O]2` [[^67Ga]-3], the “difference between right (MPO) and left (control) thigh” value on MPO [1] (mice, 6 hours after the injection) was “around 60%”. Also, the “intensity of MPO implant vs control implant” value on MPO [1] (mouse SPECT/CT fusion images) is listed as “higher intensity”. In data set [2], the “residual radioactivity in liver” value is approximately 1.4%, the “residual radioactivity in the bowel” value is on record as approximately 7.8% and the “residual radioactivity in the rest of the organs” value was “below 0.5%”.
Consider `O=C([O-])CN(CCN(CC(=O)[O-])CC(=O)O)CCN(CC(=O)[O-])CC(=O)O.[Gd+3]` [DTPA(Gd), reference compound], for which, on endogenous mouse MPO [3], the “difference in enhancement LPS side vs control” value is “no significant difference in enhancement”. The “enhancement of MPO implant compared with control implant” value in data set [4] is recorded as “no visual difference or CNR difference”; in data set [4] (listed as Magnevist), “did not show any difference”. For the same compound, the “enhancement at 50 minutes after injection” value on endogenous mouse MPO [5] is reported as “significant wash-out of the enhancement”.
In turn, `CC(=O)N1CCCCCNC(=O)CCC(=O)N2CCCCCNC(=O)CCC(=O)N(CCCCCNC(=O)Cc3c[nH]c4ccc(O)cc34)[O][Ga]([O]1)[O]2` [Ga-3] registered a conversion in data set [6] of approximately 90%. Also, the “result with MPO compared with HRP” value on MPO [7] is listed as “similar”.
